Measured values as given in patent US7087768B2, “Fumagillol derivatives and preparing method thereof” (Equispharm Co., Ltd., priority 2001, dated 2006).
≈ marks a conversion by molar mass, not a printed value.

The molecules below were run on HUVECs (human umbilical vein endothelial cells) (assay: Inhibitory effect of fumagillol derivative on HUVEC cell growth (colorimetry)). Details: Homo sapiens, HUVEC.
Type: cell-based
Protocol: Using the HUVECs (human umbilical vein endothelial), the effect of the fumagillol derivative of the present invention on cell growth was evaluated.
The HUVECs were added to M199 medium supplemented with 20% FBS (fetal bovine serum), 100 U/ml penicillin, 100 μg/ml streptomycin, 1.5 g/L sodium bicarbonate, 0.1 mg/ml endothelial cell growth supplement (Sigma) and 0.1 mg/ml heparin (Sigma), after which the cells were incubated in an incubator at 37° C. under 5% CO2. Cells were subcultured a maximum of 8 times before being discarded.
In order to evaluate inhibitory activity of the fumagillin derivative on growth of HUVECs, the inventive compound was dissolved in DMSO and its concentration was adjusted from 10 mM to 1 mM. Cells were aliquotted to 96 well plates at a density of 2×10^3 cells per well and incubated for about 12–24 hours to be properly attached to the plate. Thereafter, the medium was replaced with new medium. The cells were treated with the compound obtained from each of the above examples at various concentration ranges of from 10 μM to […], and cultured for 2–3 days, followed by removing 100 μl of the medium from each well.
Colorimetry was performed to determine the extent of cell growth. The cells on each plate was added with 20 μl of aqueous one solution and then incubated at 37° C. under 5% CO2 for 2 hours. Using a 96-well plate reader, absorption was measured at 490 nm.
As such, a conventional TNP-470 having angiogenesis inhibitory effect was used as a control.
CO[C@@H]1[C@H](OC(=O)CNCCBr)CC[C@]2(CO2)[C@H]1[C@@]1(C)OC1CC=C(C)C (some centres unmarked) [Ex. 61, 6-O-(2-bromoethylamino)acetyl fumagillol] gave an IC50 of 2800 ng/mL (≈ 6270 nM).

Same assay, conditions: Homo sapiens, HUVEC, HUVEC growth, cultured 2–3 days with compound, absorption at 490 nm; read-out: IC50
CCC(C)NCC(=O)O[C@@H]1CC[C@]2(CO2)[C@@H]([C@@]2(C)OC2CC=C(C)C)[C@@H]1OC (some centres unmarked) [Ex. 45, 6-O-(sec-butylamino)acetyl fumagillol] was tested, and the IC50 was 370 ng/mL (≈ 935 nM). For CCC(C)CNCC(=O)O[C@@H]1CC[C@]2(CO2)[C@@H]([C@@]2(C)OC2CC=C(C)C)[C@@H]1OC (some centres unmarked) [Ex. 46, 6-O-(2-methyl-butylamino)acetyl fumagillol], the IC50 was 2600 ng/mL (≈ 6350 nM). In the case of CCCCCNCC(=O)O[C@@H]1CC[C@]2(CO2)[C@@H]([C@@]2(C)OC2CC=C(C)C)[C@@H]1OC (some centres unmarked) [Ex. 48, 6-O-(pentylamino)acetyl fumagillol], the IC50 is reported as 3000 ng/mL (≈ 7320 nM). For CCCC(C)NCC(=O)O[C@@H]1CC[C@]2(CO2)[C@@H]([C@@]2(C)OC2CC=C(C)C)[C@@H]1OC (some centres unmarked) [Ex. 49, 6-O-(1-methyl-butylamino)acetyl fumagillol], the IC50 was 44 ng/mL (≈ 107 nM). In the case of CCC(CC)NCC(=O)O[C@@H]1CC[C@]2(CO2)[C@@H]([C@@]2(C)OC2CC=C(C)C)[C@@H]1OC (some centres unmarked) [Ex. 50, 6-O-(1-ethyl-propylamino)acetyl fumagillol], the IC50 is reported as 24 ng/mL (≈ 58.6 nM). Work on CCCCC(C)NCC(=O)O[C@@H]1CC[C@]2(CO2)[C@@H]([C@@]2(C)OC2CC=C(C)C)[C@@H]1OC (some centres unmarked) [Ex. 51, 6-O-(1-methyl-pentylamino)acetyl fumagillol] yielded an IC50 of 32000 ng/mL (≈ 75500 nM). With CCC(C)C(C)NCC(=O)O[C@@H]1CC[C@]2(CO2)[C@@H]([C@@]2(C)OC2CC=C(C)C)[C@@H]1OC (some centres unmarked) [Ex. 52, 6-O-(1,2-dimethylbutylamino)acetyl fumagillol] the IC50 was 290 ng/mL (≈ 685 nM). For CO[C@@H]1[C@H](OC(=O)CNC(C)C(C)(C)C)CC[C@]2(CO2)[C@H]1[C@@]1(C)OC1CC=C(C)C (some centres unmarked) [Ex. 53, 6-O-(1,2,2-trimethylpropylamino)acetyl fumagillol], the IC50 was 162 ng/mL (≈ 382 nM). CC/C=C(C)/C=C/CNCC(=O)O[C@@H]1CC[C@]2(CO2)[C@@H]([C@@]2(C)OC2CC=C(C)C)[C@@H]1OC (some centres unmarked) [Ex. 57, 6-O-(4-methyl-hepta-2,4-dienylamino)acetyl fumagillol] was tested, and the IC50 was 420 ng/mL (≈ 938 nM). Molecule CO[C@@H]1[C@H](OC(=O)CNC(C)CCC=C(C)C)CC[C@]2(CO2)[C@H]1[C@@]1(C)OC1CC=C(C)C (some centres unmarked) [Ex. 58, 6-O-(1,5-dimethyl-4-hexenylamino)acetyl fumagillol] has an IC50 of 415 ng/mL (≈ 923 nM). For C#CC(C)(C)NCC(=O)O[C@@H]1CC[C@]2(CO2)[C@@H]([C@@]2(C)OC2CC=C(C)C)[C@@H]1OC (some centres unmarked) [Ex. 59, 6-O-(1,1-dimethyl-2-propinylamino)acetyl fumagillol], the IC50 was 174 ng/mL (≈ 429 nM). In the case of CO[C@@H]1[C@H](OC(=O)CNC#CCl)CC[C@]2(CO2)[C@H]1[C@@]1(C)OC1CC=C(C)C (some centres unmarked) [Ex. 62, 6-O-(chloroethynylamino)acetyl fumagillol], the IC50 is reported as 340 ng/mL (≈ 854 nM). For CO[C@@H]1[C@H](OC(=O)CNC2CC2)CC[C@]2(CO2)[C@H]1[C@@]1(C)OC1CC=C(C)C (some centres unmarked) [Ex. 63, 6-O-(cyclopropylamino)acetyl fumagillol], the IC50 was 0.008 ng/mL (≈ 0.0211 nM). Molecule CO[C@@H]1[C@H](OC(=O)CNC2CCC2)CC[C@]2(CO2)[C@H]1[C@@]1(C)OC1CC=C(C)C (some centres unmarked) [Ex. 64, 6-O-(cyclobutylamino)acetyl fumagillol] has an IC50 of 0.07 ng/mL (≈ 0.178 nM). CO[C@@H]1[C@H](OC(=O)CNC2CCCC2)CC[C@]2(CO2)[C@H]1[C@@]1(C)OC1CC=C(C)C (some centres unmarked) [Ex. 65, 6-O-(cyclopentylamino)acetyl fumagillol] was tested, and the IC50 was 250 ng/mL (≈ 613 nM). CO[C@@H]1[C@H](OC(=O)CNC2CCCCC2)CC[C@]2(CO2)[C@H]1[C@@]1(C)OC1CC=C(C)C (some centres unmarked) [Ex. 66, 6-O-(cyclohexylamino)acetyl fumagillol] was tested, and the IC50 was 0.6 ng/mL (≈ 1.42 nM). With CO[C@@H]1[C@H](OC(=O)CNC2CCC(C(C)(C)C)CC2)CC[C@]2(CO2)[C@H]1[C@@]1(C)OC1CC=C(C)C (some centres unmarked) [Ex. 67, 6-O-(4-tert-butyl-cyclohexylamino)acetyl fumagillol] the IC50 was 0.06 ng/mL (≈ 0.126 nM). CO[C@@H]1[C@H](OC(=O)CNC(C)CN(C)C)CC[C@]2(CO2)[C@H]1[C@@]1(C)OC1CC=C(C)C (some centres unmarked) [Ex. 68, 6-O-(2-dimethylamino-1-methylethylamino)acetyl fumagillol] showed an IC50 of 240 ng/mL (≈ 565 nM). In the case of CO[C@@H]1[C@H](OC(=O)CNCC(C)N(C)C)CC[C@]2(CO2)[C@H]1[C@@]1(C)OC1CC=C(C)C (some centres unmarked) [Ex. 69, 6-O-(2-dimethylamino-propylamino)acetyl fumagillol], the IC50 is reported as 260 ng/mL (≈ 612 nM). For CO[C@@H]1[C@H](OC(=O)CNCC(C)(C)OC)CC[C@]2(CO2)[C@H]1[C@@]1(C)OC1CC=C(C)C (some centres unmarked) [Ex. 70, 6-O-(2-methoxy-2-methyl-propylamino)acetyl fumagillol], the IC50 was 178 ng/mL (≈ 418 nM). In the case of CO[C@@H]1[C@H](OC(=O)CNCC(C)=O)CC[C@]2(CO2)[C@H]1[C@@]1(C)OC1CC=C(C)C (some centres unmarked) [Ex. 71, 6-O-(2-oxo-propylamino)acetyl fumagillol], the IC50 is reported as 260 ng/mL (≈ 657 nM). In the case of CO[C@@H]1[C@H](OC(=O)CNC(C)(C)CC(C)=O)CC[C@]2(CO2)[C@H]1[C@@]1(C)OC1CC=C(C)C (some centres unmarked) [Ex. 72, 6-O-(1,1-dimethyl-3-oxobutylamino)acetyl fumagillol], the IC50 is reported as 330 ng/mL (≈ 754 nM). With CCOC(=O)CNCC(=O)O[C@@H]1CC[C@]2(CO2)[C@@H]([C@@]2(C)OC2CC=C(C)C)[C@@H]1OC (some centres unmarked) [Ex. 73, 6-O-(ethyl-2-aminoacetate)acetyl fumagillol] the IC50 was 1200 ng/mL (≈ 2820 nM). In the case of COC(=O)C(C)NCC(=O)O[C@@H]1CC[C@]2(CO2)[C@@H]([C@@]2(C)OC2CC=C(C)C)[C@@H]1OC (some centres unmarked) [Ex. 74, 6-O-(alaninemethylesteramino)acetyl fumagillol], the IC50 is reported as 800 ng/mL (≈ 1880 nM). In the case of COC(=O)C(NCC(=O)O[C@@H]1CC[C@]2(CO2)[C@@H]([C@@]2(C)OC2CC=C(C)C)[C@@H]1OC)C(C)(C)C (some centres unmarked) [Ex. 75, 6-O-(methyl-2-amino-3,3-dimethylbutanoate)acetyl fumagillol], the IC50 is reported as 2400 ng/mL (≈ 5130 nM). In the case of COC(CNCC(=O)O[C@@H]1CC[C@]2(CO2)[C@@H]([C@@]2(C)OC2CC=C(C)C)[C@@H]1OC)OC (some centres unmarked) [Ex. 77, 6-O-(2,2-dimethoxyethylamino)acetyl fumagillol], the IC50 is reported as 330 ng/mL (≈ 772 nM). CO[C@@H]1[C@H](OC(=O)CCl)CC[C@]2(CO2)[C@H]1[C@@]1(C)OC1CC=C(C)C (some centres unmarked) [Intermediate, 6-O-(chloro)acetyl fumagillol] showed an IC50 of 2000 ng/mL (≈ 5570 nM). For CO[C@@H]1[C@H](OC(=O)NC(=O)CCl)CC[C@]2(CO2)[C@H]1[C@@]1(C)O[C@@H]1CC=C(C)C [TNP-470, reference compound], the IC50 was 29 ng/mL (≈ 72.2 nM).

Same assay, conditions: Homo sapiens; HUVEC growth, cultured 2–3 days with compound, absorption at 490 nm; read-out: IC50
With CO[C@@H]1[C@H](OC(=O)CNC(C(C)C)C(C)C)CC[C@]2(CO2)[C@H]1[C@@]1(C)OC1CC=C(C)C (some centres unmarked) [Ex. 54, 6-O-(1-isopropyl-2-methylpropylamino)acetyl fumagillol] the IC50 was 11 ng/mL (≈ 25.1 nM). C=C(C)CNCC(=O)O[C@@H]1CC[C@]2(CO2)[C@@H]([C@@]2(C)OC2CC=C(C)C)[C@@H]1OC (some centres unmarked) [Ex. 56, 6-O-(2-methyl-allylamino)acetyl fumagillol] gave an IC50 of 28 ng/mL (≈ 71.2 nM). Work on C=CCC(NCC(=O)O[C@@H]1CC[C@]2(CO2)[C@@H]([C@@]2(C)OC2CC=C(C)C)[C@@H]1OC)C(=O)OC (some centres unmarked) [Ex. 76, 6-O-(allylglycinemethylester)acetyl fumagillol] yielded an IC50 of 1490 ng/mL (≈ 3300 nM).
